One test has as its target T1, α5β1 (Homo sapiens, UniProt P05556+P08648).
T1 construct: incubating a small molecule RGD-mimetic-tritiated radioligand with soluble integrin protein
In words: biochemical. The conditions noted are these: read-out: inhibition of binding.

For another test, the target named is T2, α8β1 (Homo sapiens, UniProt P05556+P53708).
T2 construct: incubating a small molecule RGD-mimetic-tritiated radioligand with soluble integrin protein
Description: biochemical. Particulars: read-out: inhibition of binding.

Where only a bound is given, the exact number is not on record here.

This is an account of results in article PMC7075836 (European Journal of Nuclear Medicine and Molecular Imaging, 2020).

The term inhibition denotes the drop in the measured response relative to a control, in per cent.

T1 sequence (P08648 42-995 limits assumed): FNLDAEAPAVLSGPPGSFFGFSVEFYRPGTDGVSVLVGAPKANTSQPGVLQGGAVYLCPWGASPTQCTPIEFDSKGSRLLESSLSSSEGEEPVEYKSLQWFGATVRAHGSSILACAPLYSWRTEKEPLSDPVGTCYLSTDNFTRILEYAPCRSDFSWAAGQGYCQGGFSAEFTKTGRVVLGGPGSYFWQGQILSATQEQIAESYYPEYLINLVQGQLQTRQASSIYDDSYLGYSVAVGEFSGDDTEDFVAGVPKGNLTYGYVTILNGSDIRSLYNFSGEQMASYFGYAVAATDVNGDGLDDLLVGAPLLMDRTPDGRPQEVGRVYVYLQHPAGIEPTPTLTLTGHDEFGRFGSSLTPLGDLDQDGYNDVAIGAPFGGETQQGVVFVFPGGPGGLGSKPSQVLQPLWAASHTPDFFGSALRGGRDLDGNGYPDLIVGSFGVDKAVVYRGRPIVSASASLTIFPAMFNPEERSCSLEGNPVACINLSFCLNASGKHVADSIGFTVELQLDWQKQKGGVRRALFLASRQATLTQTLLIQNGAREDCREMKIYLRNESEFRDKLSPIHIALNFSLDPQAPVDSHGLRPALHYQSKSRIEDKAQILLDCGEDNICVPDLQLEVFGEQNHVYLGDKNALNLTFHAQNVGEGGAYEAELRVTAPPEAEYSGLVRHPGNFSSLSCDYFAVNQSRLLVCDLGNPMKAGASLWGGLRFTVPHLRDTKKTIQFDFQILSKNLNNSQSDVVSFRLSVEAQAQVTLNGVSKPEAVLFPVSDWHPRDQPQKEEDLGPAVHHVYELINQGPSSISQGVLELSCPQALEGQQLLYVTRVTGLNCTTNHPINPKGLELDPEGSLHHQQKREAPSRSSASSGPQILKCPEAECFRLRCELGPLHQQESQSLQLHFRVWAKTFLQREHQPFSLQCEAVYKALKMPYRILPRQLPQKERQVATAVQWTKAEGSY
T1 sequence (P05556 21-728 limits assumed): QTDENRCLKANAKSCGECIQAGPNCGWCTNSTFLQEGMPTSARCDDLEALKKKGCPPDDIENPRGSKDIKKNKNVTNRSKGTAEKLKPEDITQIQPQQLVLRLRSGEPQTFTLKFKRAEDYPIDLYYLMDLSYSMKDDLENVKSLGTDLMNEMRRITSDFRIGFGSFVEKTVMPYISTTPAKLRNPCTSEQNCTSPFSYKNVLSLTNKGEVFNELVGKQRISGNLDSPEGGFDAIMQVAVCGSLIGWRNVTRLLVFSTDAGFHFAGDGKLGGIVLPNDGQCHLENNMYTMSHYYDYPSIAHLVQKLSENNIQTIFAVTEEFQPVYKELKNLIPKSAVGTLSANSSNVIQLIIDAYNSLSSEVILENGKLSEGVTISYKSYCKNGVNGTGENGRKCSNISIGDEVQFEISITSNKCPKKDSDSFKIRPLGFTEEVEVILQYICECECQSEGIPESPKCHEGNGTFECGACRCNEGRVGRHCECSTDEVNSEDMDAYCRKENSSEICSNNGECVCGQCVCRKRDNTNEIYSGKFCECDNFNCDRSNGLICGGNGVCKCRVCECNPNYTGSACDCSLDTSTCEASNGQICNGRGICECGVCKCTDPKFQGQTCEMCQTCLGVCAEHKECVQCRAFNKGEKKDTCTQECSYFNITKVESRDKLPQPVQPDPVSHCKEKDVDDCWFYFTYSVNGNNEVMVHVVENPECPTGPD
T2 sequence (P53708 39-1012 limits assumed): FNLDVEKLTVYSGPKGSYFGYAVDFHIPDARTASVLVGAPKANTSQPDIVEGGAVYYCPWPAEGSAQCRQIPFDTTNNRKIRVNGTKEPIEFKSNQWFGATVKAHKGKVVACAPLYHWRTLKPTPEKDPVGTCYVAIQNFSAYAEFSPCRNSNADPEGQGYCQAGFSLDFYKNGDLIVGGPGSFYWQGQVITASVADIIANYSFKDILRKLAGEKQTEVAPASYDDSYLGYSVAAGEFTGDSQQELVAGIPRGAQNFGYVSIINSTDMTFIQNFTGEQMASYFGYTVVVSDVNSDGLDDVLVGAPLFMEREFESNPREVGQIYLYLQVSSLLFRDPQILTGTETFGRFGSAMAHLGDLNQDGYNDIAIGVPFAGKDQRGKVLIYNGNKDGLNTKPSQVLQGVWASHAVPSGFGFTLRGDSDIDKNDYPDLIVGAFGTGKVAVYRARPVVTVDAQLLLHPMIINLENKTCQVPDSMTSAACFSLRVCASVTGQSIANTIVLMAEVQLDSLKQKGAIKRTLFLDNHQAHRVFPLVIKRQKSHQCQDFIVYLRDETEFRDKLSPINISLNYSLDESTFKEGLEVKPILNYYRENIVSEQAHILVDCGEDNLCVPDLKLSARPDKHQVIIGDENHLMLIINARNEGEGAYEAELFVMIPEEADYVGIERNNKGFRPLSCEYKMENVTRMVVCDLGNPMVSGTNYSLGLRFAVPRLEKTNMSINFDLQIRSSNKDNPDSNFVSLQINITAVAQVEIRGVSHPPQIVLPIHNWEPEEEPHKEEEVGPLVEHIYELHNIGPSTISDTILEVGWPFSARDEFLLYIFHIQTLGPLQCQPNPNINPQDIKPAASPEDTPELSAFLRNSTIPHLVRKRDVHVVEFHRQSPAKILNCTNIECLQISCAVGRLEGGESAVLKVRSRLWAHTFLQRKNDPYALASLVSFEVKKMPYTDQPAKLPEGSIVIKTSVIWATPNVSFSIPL
T2 sequence (P05556 21-728 limits assumed): as the sequence (P05556 21-728 limits assumed) above

For the compound `CC(C)C[C@H](NC(=O)[C@H](CC(=O)O)NC(=O)CNC(=O)[C@H](CCCNC(=N)N)NC(=O)[C@H](CC(C)C)NC(=O)[C@H](CC(N)=O)NC(=O)[C@@H]1CCCN1C(=O)[C@@H](NC(=O)[C@H](C)NC(=O)[C@@H](N)CC(N)=O)C(C)C)C(=O)N[C@@H](CCC(N)=O)C(=O)N[C@H](C(=O)N[C@@H](CC(C)C)C(=O)N[C@@H](C)C(=O)N[C@@H](CCC(N)=O)C(=O)N[C@@H](CCCCN)C(=O)N[C@H](C(=O)N[C@@H](C)C(=O)N[C@@H](CCCNC(=N)N)C(=O)N[C@H](C(N)=O)[C@@H](C)O)C(C)C)C(C)C` [A20FMDV2], the inhibition at 1 µM at α5β1 and on α8β1 was below 50% throughout.
